# Assay results from PMC3914206.
# Key:
# panel of 442 kinases [1] = target: T1, panel of 442 kinases (Homo sapiens, UniProt O96017); format: binding; settings: Compound Concentration 10 µM
# T1 construct: purchased KINOMEscan
# Source text: (§1) We assessed the selectivity of members of this scaffold using the KINOMEscan methodology across a near comprehensive panel of 442 kinases [[18,27]].
# panel of 442 kinases [2] = target: T2, panel of 442 kinases (Homo sapiens, UniProt P45985); format: binding; settings: Compound Concentration 10 µM
# T2 construct: purchased KINOMEscan
# T2 sequence (P45985 1-399): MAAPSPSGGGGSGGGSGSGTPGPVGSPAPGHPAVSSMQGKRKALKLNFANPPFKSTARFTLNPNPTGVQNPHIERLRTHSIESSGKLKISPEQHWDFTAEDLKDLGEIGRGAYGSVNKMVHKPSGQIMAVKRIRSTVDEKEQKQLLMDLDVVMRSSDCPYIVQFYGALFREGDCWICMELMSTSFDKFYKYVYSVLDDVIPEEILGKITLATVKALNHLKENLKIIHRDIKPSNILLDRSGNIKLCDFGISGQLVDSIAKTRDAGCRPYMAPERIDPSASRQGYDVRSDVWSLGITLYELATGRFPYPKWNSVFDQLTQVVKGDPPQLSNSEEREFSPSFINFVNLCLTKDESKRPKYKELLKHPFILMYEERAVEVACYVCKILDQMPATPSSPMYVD
# Source text: as §1
# T1 sequence (O96017 whole entry): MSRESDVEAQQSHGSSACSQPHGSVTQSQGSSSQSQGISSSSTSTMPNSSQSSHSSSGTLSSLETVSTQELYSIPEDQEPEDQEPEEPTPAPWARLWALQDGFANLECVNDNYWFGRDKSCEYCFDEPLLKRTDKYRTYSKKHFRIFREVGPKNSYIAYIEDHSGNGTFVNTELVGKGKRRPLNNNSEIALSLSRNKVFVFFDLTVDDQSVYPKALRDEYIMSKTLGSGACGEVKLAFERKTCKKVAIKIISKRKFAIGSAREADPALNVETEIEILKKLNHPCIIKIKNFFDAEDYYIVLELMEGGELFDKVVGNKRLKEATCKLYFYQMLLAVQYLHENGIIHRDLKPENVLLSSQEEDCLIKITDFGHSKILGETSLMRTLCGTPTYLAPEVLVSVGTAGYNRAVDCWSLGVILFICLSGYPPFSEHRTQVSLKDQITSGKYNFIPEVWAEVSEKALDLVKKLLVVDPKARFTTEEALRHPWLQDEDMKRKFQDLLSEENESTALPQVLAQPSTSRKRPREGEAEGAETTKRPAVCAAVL
SMILES,KINOMEscan: CHEK2 (panel of 442 kinases [1]),KINOMEscan: MEK4 (panel of 442 kinases [2])
"COc1cc(C(=O)N2CCC(N3CCN(C)CC3)CC2)ccc1Nc1ncc2c(n1)N(C1CCCC1)c1ccccc1C(=O)N2C [Compound 25, 11-cyclopentyl-2-((2-methoxy-4-(4-(4-methylpiperazin-1-yl)piperidine-1-carbonyl)phenyl)amino)-5-methyl-5H-benzo[e]pyrimido[5,4-b][1,4]diazepin-6(11H)-one]",100,100
CCOc1cc(C(=O)N2CCC(N3CCN(C)CC3)CC2)ccc1Nc1ncc2c(n1)N(C1CCCC1)c1ccccc1C(=O)N2C [Compound 26],100,100
COc1cc(C(=O)N2CCC(N3CCN(C)CC3)CC2)ccc1Nc1ncc2c(n1)N(C)c1ccccc1C(=O)N2C [15 (LRRK2-IN-1)],66,100
